Activity calls are given as the source filed them. No cut-off for these calls is given here.
Key:
[1] = system: DLD-1; test: Antiproliferative activity against human DLD-1 cells assessed as reduction in cell viability incubated for 48 hrs by MTT assay; type: functional, cell-based; details: DLD-1, 48 h
[2] = Cytotoxicity against human NCM460 cells assessed as reduction in cell viability incubated for 48 hrs by MTT assay; type: toxicity, cell-based
[3] = Selectivity index, ratio of IC50 for cytotoxicity against human NCM460 cells to IC50 for antiproliferative activity against human HCT-116 cells; type: toxicity, cell-based; details: NCM460 cells and HCT-116 cells, read-out: Ratio IC50
[4] = system: HCT-116; test: cells; details: Homo sapiens, HCT-116, 48 h
[5] = system: SW480; test: cells; details: Homo sapiens, SW480, 48 h
Description: Antiproliferative activity against human SW480 cells assessed as reduction in cell viability incubated for 48 hrs by MTT assay

[6] = biological target: Poly [ADP-ribose] polymerase 1 (Homo sapiens, UniProt P09874); test: Inhibition of human PARP-1 by ELISA
Sequence of Poly [ADP-ribose] polymerase 1 (P09874 whole entry): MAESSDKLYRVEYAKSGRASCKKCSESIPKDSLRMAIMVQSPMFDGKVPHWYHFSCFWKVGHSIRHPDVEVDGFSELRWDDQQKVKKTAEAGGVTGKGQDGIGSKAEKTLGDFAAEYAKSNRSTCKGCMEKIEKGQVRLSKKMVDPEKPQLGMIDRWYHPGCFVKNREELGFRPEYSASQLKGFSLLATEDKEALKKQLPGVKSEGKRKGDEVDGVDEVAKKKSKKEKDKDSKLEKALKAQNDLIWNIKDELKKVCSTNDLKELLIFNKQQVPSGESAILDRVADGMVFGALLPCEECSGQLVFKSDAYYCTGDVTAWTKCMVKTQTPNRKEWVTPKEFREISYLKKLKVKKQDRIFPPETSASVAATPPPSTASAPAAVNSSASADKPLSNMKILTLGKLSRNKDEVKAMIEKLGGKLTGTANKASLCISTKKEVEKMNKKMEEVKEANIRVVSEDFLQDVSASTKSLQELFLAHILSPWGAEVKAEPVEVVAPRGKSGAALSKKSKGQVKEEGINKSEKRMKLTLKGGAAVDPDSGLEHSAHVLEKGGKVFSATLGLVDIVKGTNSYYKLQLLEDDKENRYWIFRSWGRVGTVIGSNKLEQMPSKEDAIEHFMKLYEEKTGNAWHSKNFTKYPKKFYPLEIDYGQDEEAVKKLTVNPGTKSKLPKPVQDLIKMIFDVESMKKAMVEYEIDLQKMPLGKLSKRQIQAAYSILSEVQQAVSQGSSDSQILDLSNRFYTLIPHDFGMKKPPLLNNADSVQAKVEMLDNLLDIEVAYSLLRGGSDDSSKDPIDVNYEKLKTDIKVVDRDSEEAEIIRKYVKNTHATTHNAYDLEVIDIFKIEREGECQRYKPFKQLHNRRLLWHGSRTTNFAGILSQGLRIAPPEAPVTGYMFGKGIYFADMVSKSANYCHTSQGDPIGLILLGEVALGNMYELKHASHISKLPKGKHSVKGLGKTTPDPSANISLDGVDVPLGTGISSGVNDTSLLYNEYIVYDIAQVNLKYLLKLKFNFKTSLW

[7] = biological target: Poly [ADP-ribose] polymerase 2 (Homo sapiens, UniProt Q9UGN5); test: Inhibition of human PARP-2 by ELISA
Sequence of Poly [ADP-ribose] polymerase 2 (Q9UGN5 whole entry): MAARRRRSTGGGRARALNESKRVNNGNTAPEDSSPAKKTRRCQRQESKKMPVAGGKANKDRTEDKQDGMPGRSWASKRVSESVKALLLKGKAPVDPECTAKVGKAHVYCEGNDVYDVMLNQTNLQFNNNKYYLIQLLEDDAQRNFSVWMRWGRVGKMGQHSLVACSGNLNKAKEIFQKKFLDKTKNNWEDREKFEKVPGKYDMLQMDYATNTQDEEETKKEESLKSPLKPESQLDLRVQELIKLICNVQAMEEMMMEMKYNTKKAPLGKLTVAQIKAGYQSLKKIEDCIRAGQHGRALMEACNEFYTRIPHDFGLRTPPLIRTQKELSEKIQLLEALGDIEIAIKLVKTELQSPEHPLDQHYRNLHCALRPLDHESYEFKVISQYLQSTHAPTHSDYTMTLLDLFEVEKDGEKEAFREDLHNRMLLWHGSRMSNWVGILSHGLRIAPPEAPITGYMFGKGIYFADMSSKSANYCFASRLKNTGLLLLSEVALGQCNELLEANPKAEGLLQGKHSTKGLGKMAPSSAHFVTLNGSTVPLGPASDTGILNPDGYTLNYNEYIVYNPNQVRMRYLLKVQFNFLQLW

[8] = system: HCT-116; test: Induction of mitochondrial membrane potential loss in human HCT-116 cells assessed as increase in monomer JC-1 level by measuring green fluorescence intensity at 15 uM incubated for 48 hrs by immunofluorescence analysis; type: functional, cell-based
[9] = system: HCT-116; test: Induction of mitochondrial membrane potential loss in human HCT-116 cells assessed as JC-1 aggregate level by measuring red fluorescence intensity at 15 uM incubated for 48 hrs by JC-1 staining based flow cytometry (reference value: 96.72%); type: functional
[10] = system: HCT-116; test: Induction of mitochondrial membrane potential loss in human HCT-116 cells assessed as JC-1 monomer level by measuring green fluorescence intensity at 15 uM incubated for 48 hrs by JC-1 staining based flow cytometry (reference value: 3.28%); type: functional

Structure (SMILES) | IC50 [1] | IC50 at 48 h [2] | selectivity ratio [3] | IC50 [4] | IC50 [5] | IC50 [6] | IC50 [7] | Activity [8] | Activity [9] | Activity [10]
NC(=O)c1ccccc1OCc1cccc(NC(=O)Cc2ccccc2Br)c1 | 9.69 µM | 183 µM | 22.6 | 8.09 µM | 8.11 µM | – | – | – | – | –
NC(=O)c1ccccc1OCc1cccc(NC(=O)c2ccccc2Cl)c1 | 36.4 µM | 131 µM | 3.72 | 35.3 µM | 11.6 µM | – | – | – | – | –
NC(=O)c1ccccc1OCc1cccc(NC(=O)Cc2ccccc2Cl)c1 | 18.7 µM | 98.7 µM | 4.48 | 22.1 µM | 12.7 µM | – | – | – | – | –
NC(=O)c1ccccc1OCc1cccc(NC(=O)c2ccc(Cl)cc2)c1 | 13 µM | 340 µM | 1020 | 0.33 µM | 33.3 µM | 0.00128 µM | 0.00436 µM | – | – | –
NC(=O)c1ccccc1NCc1cccc(NC(=O)c2ccc(Br)cc2)c1 | 44.5 µM | 60.2 µM | 1.59 | 37.9 µM | 37 µM | – | – | – | – | –
NC(=O)c1ccccc1OCc1cccc(NC(=O)Nc2cccc(Br)c2)c1 | 13.2 µM | 134 µM | 12.5 | 8.93 µM | 25.1 µM | – | – | – | – | –
NC(=O)c1ccccc1NCc1cccc(NC(=O)Nc2cccc(Br)c2)c1 | 7.7 µM | 154 µM | 17.9 | 7.87 µM | 19.8 µM | – | – | – | – | –
NC(=O)c1ccccc1NCc1cccc(NC(=O)c2cccc(Cl)c2)c1 | 45.4 µM | 200 µM | 7.58 | 26.4 µM | 62.4 µM | – | – | – | – | –
O=C(c1cc(Cc2n[nH]c(=O)c3ccccc23)ccc1F)N1CCN(C(=O)C2CC2)CC1 [OLAPARIB] | 13.7 µM | 319 µM | – | 26.4 µM | 39.3 µM | – | – | Active | 83.67% | 16.33%
NC(=O)c1ccccc1NCc1cccc(NC(=O)Cc2ccccc2Br)c1 | 11.7 µM | 69.4 µM | 3.35 | 20.7 µM | 14 µM | – | – | – | – | –
NC(=O)c1ccccc1NCc1cccc(NC(=O)c2cccc(Br)c2)c1 | 10 µM | 73.5 µM | 12.9 | 5.69 µM | 5.08 µM | – | – | – | – | –
NC(=O)c1ccccc1OCc1cccc(NC(=O)Cc2cccc(Cl)c2)c1 | 22 µM | 72.2 µM | 9.79 | 7.38 µM | 5.48 µM | – | – | – | – | –
NC(=O)c1ccccc1NCc1cccc(NC(=O)Cc2ccc(Cl)cc2)c1 | 7.86 µM | 14 µM | 0.9 | 15.7 µM | 20.2 µM | – | – | – | – | –
NC(=O)c1ccccc1OCc1cccc(NC(=O)c2ccccc2Br)c1 | 47 µM | 161 µM | 2.68 | 60.1 µM | 16.9 µM | – | – | – | – | –
NC(=O)c1ccccc1OCc1cccc(NC(=O)Cc2ccc(Cl)cc2)c1 | 19.6 µM | 286 µM | 48.8 | 5.86 µM | 27.4 µM | – | – | – | – | –
NC(=O)c1ccccc1NCc1cccc(NC(=O)Cc2ccc(Br)cc2)c1 | 14 µM | 51.3 µM | 2.62 | 19.6 µM | 8.71 µM | – | – | – | – | –
NC(=O)c1ccccc1OCc1cccc(NC(=O)c2cccc(Cl)c2)c1 | 45.5 µM | 419 µM | 10.6 | 39.6 µM | > 100 µM | – | – | – | – | –
NC(=O)c1ccccc1OCc1cccc(NC(=O)Cc2ccc(Br)cc2)c1 | 18.1 µM | 78 µM | 19 | 4.1 µM | 30.8 µM | – | – | – | – | –
NC(=O)c1ccccc1NCc1cccc(NC(=O)Cc2ccccc2Cl)c1 | 29.4 µM | 65 µM | 4.72 | 13.8 µM | 10.7 µM | – | – | – | – | –
NC(=O)c1ccccc1NCc1cccc(NC(=O)Cc2cccc(Cl)c2)c1 | 9.14 µM | 77.2 µM | 1.02 | 75.9 µM | > 100 µM | – | – | – | – | –
NC(=O)c1ccccc1OCc1cccc(NC(=O)Cc2cccc(Br)c2)c1 | 14.9 µM | 91.2 µM | 14.4 | 6.33 µM | 16 µM | – | – | – | – | –
NC(=O)c1ccccc1NCc1cccc(NC(=O)c2ccccc2Cl)c1 | 9.14 µM | 105 µM | 2.78 | 37.8 µM | 31.7 µM | – | – | – | – | –
NC(=O)c1ccccc1OCc1cccc(NC(=O)c2cccc(Br)c2)c1 | 64.9 µM | 238 µM | – | > 100 µM | > 100 µM | – | – | – | – | –
NC(=O)c1ccccc1NCc1cccc(NC(=O)c2ccc(Cl)cc2)c1 | 11.8 µM | 563 µM | 12.5 | 45.2 µM | 61.1 µM | – | – | – | – | –
NC(=O)c1ccccc1NCc1cccc(NC(=O)Cc2cccc(Br)c2)c1 | 22.8 µM | 129 µM | 5.52 | 23.4 µM | 8.82 µM | – | – | – | – | –
NC(=O)c1ccccc1NCc1cccc(NC(=O)c2ccccc2Br)c1 | 35 µM | 65.8 µM | 2.88 | 22.9 µM | 17.2 µM | – | – | – | – | –

— ChEMBL document CHEMBL5346921, “Discovery of novel benzamide derivatives bearing benzamidophenyl and phenylacetamidophenyl scaffolds as potential antitumor agents via targeting PARP-1” (Eur J Med Chem, 2023)
